# Data published in patent US6544540B2, “Base-triggered release microcapsules” (priority 1998, dated 2003).
# Experiments:
# Lygus hesperus = experiment: Test 1 A. Contact/Residue Contact, adult bugs in cages sprayed, mortality; format: in vivo
# Source text: Lygus hesperius was the subject in this test. Adult bugs in cages were sprayed at 250 l/h. There were four replicates of 10 insects for 5 rates of each formulation. Mortality assessments were made at 1, 2, 3, 4, 5, and 6 DAT.
# Heliothis virescens = experiment: Test 1 B. Foliar Persistence, neonate larvae on disks of sprayed detached cotton leaves, mortality; format: in vivo; details: cotton leaf disks
structure (smiles),measurement,setting,value
"CCOP(=S)(OCC)Oc1nc(Cl)c(Cl)cc1Cl [Chlorpyrifos technical, chlorpyrifos]",LC50 1DAT,"Lygus hesperus; mortality at 1 DAT, sprayed at 250 l/h",313 ppm
same,LC50 2DAT,"Lygus hesperus; mortality at 2 DAT, sprayed at 250 l/h",310 ppm
same,LC50 3DAT,"Lygus hesperus; mortality at 3 DAT, sprayed at 250 l/h",311 ppm
same,LC50 4DAT,"Lygus hesperus; mortality at 4 DAT, sprayed at 250 l/h",313 ppm
same,LC50 5DAT,"Lygus hesperus; mortality at 5 DAT, sprayed at 250 l/h",313 ppm
same,LC50 6DAT,"Lygus hesperus; mortality at 6 DAT, sprayed at 250 l/h",325 ppm
same,LC50,"Lygus hesperus; previous test results, Lygus hesperus contact/residue contact",~300 ppm
same,LC50 Total,Heliothis virescens; Total over 1-3 DAT,10.2 ppm
same,LC50 1DAT,Heliothis virescens; mortality at 1 DAT,9.8 ppm
same,LC50 2DAT,Heliothis virescens; mortality at 2 DAT,8.6 ppm
same,LC50 3DAT,Heliothis virescens; mortality at 3 DAT,12.2 ppm
